Patent US10765114B2, “4-amino-6-(pyridyl and 2-substitutedphenyl)-picolinates and 6-amino-2-(pyridyl and 2-substitutedphenyl)-pyrimidine-4-carboxylates and their use as herbicides” (Dow AgroSciences LLC, priority 2013, dated 2020)
Read-outs that look alike come from different tables or passages of the source.

Legend:
[1] = tested on: Key Broadleaf Weed and Crop Species; test: Post-Emergent Test II (Table 5); format: in vivo; settings: post-emergence, 336 h; for pest or weed control at 70 g/ha: application rate 70 (kg ai/ha; footnote: g ai/ha); for pest or weed control at 140 g/ha: application rate 140 (kg ai/ha; footnote: g ai/ha)
Procedure, shortened: (§1)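 Plants grown in a greenhouse (~15 h photoperiod, 23-29° C day) to first or second true leaf stage were sprayed post-emergence at 187 L/ha with compound in acetone/DMSO-based aqueous spray containing crop oil concentrate and surfactant, applied at a high rate plus ½× to 1/16× serial rates. Injury was scored visually 14 days later, 0-100% versus untreated plants.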

[2] = tested on: Key Grass and Sedge Weeds as well as Grass Crops; test: Post-Emergent Test II (Table 6); format: in vivo; settings: post-emergence, 336 h, 14 days after application; for pest or weed control at 70 g/ha: 70 g ai/ha; for pest or weed control at 140 g/ha: 140 g ai/ha
Procedure, shortened: as §1

[3] = Abutilon theophrasti, ABUTH: velvetleaf (Abutilon theophrasti), read-out: Visual Growth Reduction (%) 14 Days After Application ABUTH
[4] = Amaranthus retroflexus, AMARE: redroot pigweed (Amaranthus retroflexus), read-out: Visual Growth Reduction (%) 14 Days After Application AMARE
[5] = Brassica napus, BRSSS: oilseed rape, canola (Brassica napus), read-out: Visual Growth Reduction (%) 14 Days After Application BRSSS
[6] = Chenopodium album, CHEAL: lambsquarters (Chenopodium album), read-out: Visual Growth Reduction (%) 14 Days After Application CHEAL
[7] = Euphorbia heterophylla, EPHHL: wild poinsettia (Euphorbia heterophylla), read-out: Visual Growth Reduction (%) 14 Days After Application EPHHL
[8] = Helianthus annuus, HELAN: sunflower (Helianthus annuus), read-out: Visual Growth Reduction (%) 14 Days After Application HELAN
[9] = Viola tricolor, VIOTR: wild pansy (Viola tricolor), read-out: Visual Growth Reduction (%) 14 Days After Application VIOTR
[10] = CYPSS, read-out: Visual Growth Reduction (%) 14 Days After Application CYPSS
[11] = DIGSA: crabgrass (Digitaria sanguinalis), read-out: Visual Growth Reduction (%) 14 Days After Application DIGSA
[12] = ECHSS, read-out: Visual Growth Reduction (%) 14 Days After Application ECHSS
[13] = ORYSS (crop), read-out: Visual Growth Reduction (%) 14 Days After Application ORYSS
[14] = SETFA: giant foxtail (Setaria faberi), read-out: Visual Growth Reduction (%) 14 Days After Application SETFA
[15] = SORVU: grain sorghum (Sorghum vulgare), read-out: Visual Growth Reduction (%) 14 Days After Application SORVU
[16] = TRZSS (crop), read-out: Visual Growth Reduction (%) 14 Days After Application TRZSS
[17] = ZEAMX: maize, corn (Zea mays), read-out: Visual Growth Reduction (%) 14 Days After Application ZEAMX

SMILES	pest or weed control at 70 g/ha [1, 3] [%]	pest or weed control at 140 g/ha [1, 3] [%]	pest or weed control at 70 g/ha [1, 4] [%]	pest or weed control at 140 g/ha [1, 4] [%]	pest or weed control at 70 g/ha [1, 5] [%]	pest or weed control at 140 g/ha [1, 5] [%]	pest or weed control at 70 g/ha [1, 6] [%]	pest or weed control at 140 g/ha [1, 6] [%]	pest or weed control at 70 g/ha [1, 7] [%]	pest or weed control at 140 g/ha [1, 7] [%]	pest or weed control at 70 g/ha [1, 8] [%]	pest or weed control at 140 g/ha [1, 8] [%]	pest or weed control at 70 g/ha [1, 9] [%]	pest or weed control at 140 g/ha [1, 9] [%]	pest or weed control at 70 g/ha [2, 10] [%]	pest or weed control at 140 g/ha [2, 10] [%]	pest or weed control at 70 g/ha [2, 11] [%]	pest or weed control at 140 g/ha [2, 11] [%]	pest or weed control at 70 g/ha [2, 13] [%]	pest or weed control at 140 g/ha [2, 13] [%]	further results
Nc1cc(-c2ccc(Cl)c(F)c2C(=O)O)nc(C(=O)O)c1Cl [Compound 56, 4-Amino-6-(2-carboxy-4-chloro-3-fluorophenyl)-3-chloropicolinic acid]	0 to 29	0 to 29	0 to 29	0 to 29	0 to 29	0 to 29	45 to 59	75 to 84	0 to 29	0 to 29	0 to 29	0 to 29	0 to 29	0 to 29	0 to 29	0 to 29	0 to 29	0 to 29	0 to 29	0 to 29	pest or weed control at 70 g/ha [2, 12]: 0 to 29%; pest or weed control at 140 g/ha [2, 12]: 0 to 29%; pest or weed control at 70 g/ha [2, 14]: 0 to 29%; pest or weed control at 140 g/ha [2, 14]: 0 to 29%; pest or weed control at 70 g/ha [2, 15]: 0 to 29%; pest or weed control at 140 g/ha [2, 15]: 0 to 29%; pest or weed control at 70 g/ha [2, 16]: 0 to 29%; pest or weed control at 140 g/ha [2, 16]: 0 to 29%; pest or weed control at 70 g/ha [2, 17]: 0 to 29%; pest or weed control at 140 g/ha [2, 17]: 0 to 29%
COC(=O)c1nc(-c2ccc(C(F)(F)F)nc2OC)c(F)c(N)c1Cl [Compound 44, methyl 4-amino-5-chloro-3-fluoro-2′-methoxy-6′-(trifluoromethyl)-2,3′-bipyridine-6-carboxylate]	45 to 59	75 to 84	0 to 29	95 to 100	45 to 59	60 to 74	85 to 94	85 to 94	0 to 29	0 to 29	85 to 94	85 to 94	0 to 29	0 to 29	0 to 29	0 to 29	0 to 29	0 to 29	0 to 29	0 to 29	pest or weed control at 70 g/ha [2, 14]: 0 to 29%; pest or weed control at 140 g/ha [2, 14]: 0 to 29%; pest or weed control at 70 g/ha [2, 15]: 0 to 29%; pest or weed control at 140 g/ha [2, 15]: 0 to 29%; pest or weed control at 70 g/ha [2, 16]: 0 to 29%; pest or weed control at 140 g/ha [2, 16]: 0 to 29%; pest or weed control at 70 g/ha [2, 17]: 0 to 29%; pest or weed control at 140 g/ha [2, 17]: 0 to 29%
Nc1cc(-c2ccc(Cl)c(F)c2CF)nc(C(=O)O)c1Cl [Compound 80, 4-Amino-3-chloro-6-(4-chloro-3-fluoro-2-(fluoromethyl)phenyl)picolinic acid]	75 to 84	75 to 84	95 to 100	95 to 100	95 to 100	95 to 100	95 to 100	95 to 100	0 to 29	0 to 29	85 to 94	85 to 94	0 to 29	0 to 29	0 to 29	0 to 29	0 to 29	0 to 29	0 to 29	0 to 29	pest or weed control at 70 g/ha [2, 12]: 0 to 29%; pest or weed control at 140 g/ha [2, 12]: 0 to 29%; pest or weed control at 70 g/ha [2, 14]: 0 to 29%; pest or weed control at 140 g/ha [2, 14]: 0 to 29%; pest or weed control at 70 g/ha [2, 15]: 0 to 29%; pest or weed control at 140 g/ha [2, 15]: 0 to 29%; pest or weed control at 70 g/ha [2, 16]: 0 to 29%; pest or weed control at 140 g/ha [2, 16]: 0 to 29%; pest or weed control at 70 g/ha [2, 17]: 0 to 29%; pest or weed control at 140 g/ha [2, 17]: 0 to 29%
COC(=O)c1nc(-c2ccc(Cl)c(F)c2OC)c(F)c(N)c1Cl [Compound 39, methyl 4-amino-3-chloro-6-(4-chloro-3-fluoro-2-methoxyphenyl)-5-fluoropicolinate]	95 to 100	95 to 100	95 to 100	95 to 100	95 to 100	95 to 100	0 to 29	0 to 29	45 to 59	45 to 59	95 to 100	95 to 100	95 to 100	95 to 100	45 to 59	95 to 100	0 to 29	0 to 29	0 to 29	0 to 29	pest or weed control at 70 g/ha [2, 12]: 0 to 29%; pest or weed control at 140 g/ha [2, 12]: 0 to 29%; pest or weed control at 70 g/ha [2, 14]: 0 to 29%; pest or weed control at 140 g/ha [2, 14]: 75 to 84%; pest or weed control at 70 g/ha [2, 15]: 0 to 29%; pest or weed control at 140 g/ha [2, 15]: 0 to 29%; pest or weed control at 70 g/ha [2, 16]: 30 to 44%; pest or weed control at 140 g/ha [2, 16]: 30 to 44%; pest or weed control at 70 g/ha [2, 17]: 0 to 29%; pest or weed control at 140 g/ha [2, 17]: 60 to 74%
